Reference: ChEMBL document CHEMBL3421539, “A novel cell-permeable, selective, and noncompetitive inhibitor of KAT3 histone acetyltransferases from a combined molecular pruning/classical isosterism approach” (J Med Chem, 2015)
Active and inactive are the calls of the source. The calls are words filed in the database; no cut-off is given here.

What was measured:
[1] = Stability of the compound in organic solvent assessed as hydrolysis after 10 mins to 24 hrs by HPLC analysis; type: physicochemical
[2] = Stability of the compound in aqueous medium assessed as hydrolysis after 10 mins to 24 hrs by HPLC analysis; type: physicochemical; conditions: buffer
[3] = target: T1, Histone acetyltransferase p300 (Homo sapiens, UniProt Q09472); assay: Inhibition of P300 (unknown origin) using histone H3/[acetyl-3H]-acetyl coenzyme A as substrate
T1 sequence (Q09472 whole entry): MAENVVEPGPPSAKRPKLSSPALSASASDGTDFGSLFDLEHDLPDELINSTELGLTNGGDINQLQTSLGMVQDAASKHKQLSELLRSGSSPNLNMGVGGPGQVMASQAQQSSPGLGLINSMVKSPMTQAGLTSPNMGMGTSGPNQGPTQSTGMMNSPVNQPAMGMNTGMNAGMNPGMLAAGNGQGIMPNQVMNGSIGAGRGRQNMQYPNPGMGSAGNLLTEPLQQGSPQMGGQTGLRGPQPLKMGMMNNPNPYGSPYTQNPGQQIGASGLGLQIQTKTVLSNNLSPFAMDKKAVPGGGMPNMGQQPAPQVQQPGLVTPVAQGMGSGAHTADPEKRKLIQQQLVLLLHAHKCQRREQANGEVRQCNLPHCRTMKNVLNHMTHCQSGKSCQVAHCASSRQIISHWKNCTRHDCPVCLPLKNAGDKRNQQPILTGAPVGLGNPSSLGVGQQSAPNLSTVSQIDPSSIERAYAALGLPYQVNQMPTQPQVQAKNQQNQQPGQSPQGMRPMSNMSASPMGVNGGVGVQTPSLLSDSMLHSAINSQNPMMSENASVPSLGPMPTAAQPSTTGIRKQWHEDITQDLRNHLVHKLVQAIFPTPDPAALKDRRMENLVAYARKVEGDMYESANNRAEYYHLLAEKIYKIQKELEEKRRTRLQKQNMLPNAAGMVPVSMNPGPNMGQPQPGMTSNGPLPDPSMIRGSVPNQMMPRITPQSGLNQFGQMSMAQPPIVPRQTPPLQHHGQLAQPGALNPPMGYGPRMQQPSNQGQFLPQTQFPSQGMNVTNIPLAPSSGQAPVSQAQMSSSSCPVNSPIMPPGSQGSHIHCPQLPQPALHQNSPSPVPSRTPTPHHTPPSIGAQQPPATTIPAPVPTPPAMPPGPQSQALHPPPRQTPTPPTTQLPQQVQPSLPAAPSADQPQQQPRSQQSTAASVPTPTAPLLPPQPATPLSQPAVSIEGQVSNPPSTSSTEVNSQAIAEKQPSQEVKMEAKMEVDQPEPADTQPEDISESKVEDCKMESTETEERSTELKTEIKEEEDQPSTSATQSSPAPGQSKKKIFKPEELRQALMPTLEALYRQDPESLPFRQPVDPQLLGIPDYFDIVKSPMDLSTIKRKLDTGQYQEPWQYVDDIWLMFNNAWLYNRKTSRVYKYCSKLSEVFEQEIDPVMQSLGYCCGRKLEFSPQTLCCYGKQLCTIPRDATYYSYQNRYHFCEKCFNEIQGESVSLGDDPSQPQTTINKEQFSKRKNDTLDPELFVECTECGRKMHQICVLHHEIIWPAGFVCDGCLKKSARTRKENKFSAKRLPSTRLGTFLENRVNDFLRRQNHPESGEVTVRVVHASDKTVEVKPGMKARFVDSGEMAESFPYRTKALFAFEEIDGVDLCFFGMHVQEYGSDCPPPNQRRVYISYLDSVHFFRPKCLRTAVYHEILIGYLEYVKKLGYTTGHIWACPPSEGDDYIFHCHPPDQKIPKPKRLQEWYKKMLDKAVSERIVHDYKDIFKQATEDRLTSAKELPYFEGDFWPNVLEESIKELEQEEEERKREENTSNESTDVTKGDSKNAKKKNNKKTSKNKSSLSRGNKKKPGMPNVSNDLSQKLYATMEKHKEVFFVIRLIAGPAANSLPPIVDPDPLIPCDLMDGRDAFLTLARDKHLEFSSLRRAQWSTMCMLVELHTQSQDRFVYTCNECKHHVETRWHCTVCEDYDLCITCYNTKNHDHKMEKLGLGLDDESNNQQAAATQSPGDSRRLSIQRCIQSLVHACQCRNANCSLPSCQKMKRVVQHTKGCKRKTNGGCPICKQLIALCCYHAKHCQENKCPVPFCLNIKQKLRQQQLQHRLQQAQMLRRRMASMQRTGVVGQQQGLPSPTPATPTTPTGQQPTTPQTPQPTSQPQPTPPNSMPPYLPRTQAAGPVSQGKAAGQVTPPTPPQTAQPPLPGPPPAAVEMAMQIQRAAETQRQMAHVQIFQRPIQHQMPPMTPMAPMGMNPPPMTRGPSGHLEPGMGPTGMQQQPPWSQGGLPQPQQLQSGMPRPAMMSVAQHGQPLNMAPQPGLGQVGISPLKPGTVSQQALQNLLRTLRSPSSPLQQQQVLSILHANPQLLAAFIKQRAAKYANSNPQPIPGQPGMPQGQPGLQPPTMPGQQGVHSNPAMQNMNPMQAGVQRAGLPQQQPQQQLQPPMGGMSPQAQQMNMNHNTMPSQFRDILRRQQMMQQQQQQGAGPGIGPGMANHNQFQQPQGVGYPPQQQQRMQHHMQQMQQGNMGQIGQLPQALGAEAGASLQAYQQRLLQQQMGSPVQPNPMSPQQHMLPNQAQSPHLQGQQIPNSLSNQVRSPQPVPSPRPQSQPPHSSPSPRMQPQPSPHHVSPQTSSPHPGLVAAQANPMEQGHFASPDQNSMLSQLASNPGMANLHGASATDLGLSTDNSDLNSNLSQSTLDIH

[4] = target: T1, Histone acetyltransferase p300; assay: Inhibition of P300 (unknown origin) using histone H3/[acetyl-3H]-acetyl coenzyme A as substrate at 100 uM
[5] = Stability of the compound in aqueous medium assessed as hydrolysis after 30 mins by HPLC analysis; type: physicochemical; conditions: buffer, 0.5 h
[6] = target: T2, Histone acetyltransferase KAT2B (Homo sapiens, UniProt Q92831); assay: Inhibition of PCAF (unknown origin) using histone H3/[acetyl-3H]-acetyl coenzyme A as substrate at 100 uM
Target sequence in this assay (Q92831 whole entry, looked up): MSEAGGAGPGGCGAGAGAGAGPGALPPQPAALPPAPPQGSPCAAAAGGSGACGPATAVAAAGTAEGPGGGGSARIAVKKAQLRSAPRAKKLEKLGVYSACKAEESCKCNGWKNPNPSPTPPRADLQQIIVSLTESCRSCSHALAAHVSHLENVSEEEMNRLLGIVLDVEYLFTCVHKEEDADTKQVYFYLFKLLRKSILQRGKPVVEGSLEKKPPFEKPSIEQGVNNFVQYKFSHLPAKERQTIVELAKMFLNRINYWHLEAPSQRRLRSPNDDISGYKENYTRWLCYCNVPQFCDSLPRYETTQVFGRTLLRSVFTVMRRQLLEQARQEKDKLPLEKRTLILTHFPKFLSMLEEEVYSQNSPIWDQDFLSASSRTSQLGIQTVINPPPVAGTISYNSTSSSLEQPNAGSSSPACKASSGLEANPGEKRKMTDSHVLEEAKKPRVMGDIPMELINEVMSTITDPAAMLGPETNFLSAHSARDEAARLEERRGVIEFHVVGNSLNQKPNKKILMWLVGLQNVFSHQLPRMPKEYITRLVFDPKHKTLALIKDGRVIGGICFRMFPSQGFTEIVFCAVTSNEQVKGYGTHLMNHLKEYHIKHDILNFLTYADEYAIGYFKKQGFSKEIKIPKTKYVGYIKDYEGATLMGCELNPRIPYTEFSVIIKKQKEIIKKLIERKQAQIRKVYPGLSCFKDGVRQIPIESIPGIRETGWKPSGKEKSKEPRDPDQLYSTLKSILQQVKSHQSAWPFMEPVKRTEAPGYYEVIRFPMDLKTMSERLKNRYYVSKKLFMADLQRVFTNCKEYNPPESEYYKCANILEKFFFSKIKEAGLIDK

[7] = target: T1, Histone acetyltransferase p300; assay: Inhibition of P300 in […] at 30 uM up to 40 mins by Histac FRET analysis; type: cell-based; conditions: COS-7
[8] = target: T1, Histone acetyltransferase p300; conditions: 10 uM
Description: Inhibition of P300 (unknown origin) using histone H3/[acetyl-3H]-acetyl coenzyme A as substrate at 10 uM

[9] = target: T2, Histone acetyltransferase KAT2B; assay: Inhibition of PCAF (unknown origin) using histone H3/[acetyl-3H]-acetyl coenzyme A as substrate
Target sequence in this assay (Q92831 whole entry): as the sequence (Q92831 whole entry, looked up) above

[10] = target: T2, Histone acetyltransferase KAT2B; assay: Inhibition of PCAF (unknown origin) using histone H3/[acetyl-3H]-acetyl coenzyme A as substrate at 10 uM
Target sequence in this assay (Q92831 whole entry, looked up): as above

[11] = Stability of the compound in PBS at 25 degC after 2 mins to 24 hrs by HPLC analysis; type: physicochemical; conditions: buffer
[12] = target: T1, Histone acetyltransferase p300; assay: Binding affinity to human recombinant P300 catalytic domain by SPR analysis
[13] = Cell cycle arrest in human U937 cells assessed as accumulation at G0/G1 phase at 100 uM after 72 hrs by propidium iodide staining-based FACS analysis; type: functional; conditions: U-937
[14] = target: T1, Histone acetyltransferase p300; assay: Noncompetitive inhibition of P300 (unknown origin) using acetyl CoA as substrate after 15 mins by double reciprocal plot analysis
[15] = target: T1, Histone acetyltransferase p300; assay: Inhibition of recombinant P300 (unknown origin)
[16] = Apparent permeability of the compound at RT after 24 hrs by PAMPA; type: physicochemical
[17] = target: T1, Histone acetyltransferase p300; assay: Noncompetitive inhibition of P300 (unknown origin) using biotinylated H3 as substrate after 15 mins by double reciprocal plot analysis
[18] = Cell cycle arrest in human U937 cells assessed as increase in hypodiploid nuclei level at 100 uM after 72 hrs by Nicoletti method; type: functional, cell-based; conditions: U-937
[19] = Cytotoxicity against human U937 cells assessed as cell viability at 10 to 100 uM after 24 hrs by MTT assay; type: cell-based; conditions: u-937, 24 h
[20] = target: Histone acetyltransferase KAT2A (Homo sapiens) (UniProt Q92830); assay: Inhibition of recombinant GCN5 (unknown origin)
Histone acetyltransferase KAT2A (Homo sapiens), sequence (Q92830 2-837 limits assumed): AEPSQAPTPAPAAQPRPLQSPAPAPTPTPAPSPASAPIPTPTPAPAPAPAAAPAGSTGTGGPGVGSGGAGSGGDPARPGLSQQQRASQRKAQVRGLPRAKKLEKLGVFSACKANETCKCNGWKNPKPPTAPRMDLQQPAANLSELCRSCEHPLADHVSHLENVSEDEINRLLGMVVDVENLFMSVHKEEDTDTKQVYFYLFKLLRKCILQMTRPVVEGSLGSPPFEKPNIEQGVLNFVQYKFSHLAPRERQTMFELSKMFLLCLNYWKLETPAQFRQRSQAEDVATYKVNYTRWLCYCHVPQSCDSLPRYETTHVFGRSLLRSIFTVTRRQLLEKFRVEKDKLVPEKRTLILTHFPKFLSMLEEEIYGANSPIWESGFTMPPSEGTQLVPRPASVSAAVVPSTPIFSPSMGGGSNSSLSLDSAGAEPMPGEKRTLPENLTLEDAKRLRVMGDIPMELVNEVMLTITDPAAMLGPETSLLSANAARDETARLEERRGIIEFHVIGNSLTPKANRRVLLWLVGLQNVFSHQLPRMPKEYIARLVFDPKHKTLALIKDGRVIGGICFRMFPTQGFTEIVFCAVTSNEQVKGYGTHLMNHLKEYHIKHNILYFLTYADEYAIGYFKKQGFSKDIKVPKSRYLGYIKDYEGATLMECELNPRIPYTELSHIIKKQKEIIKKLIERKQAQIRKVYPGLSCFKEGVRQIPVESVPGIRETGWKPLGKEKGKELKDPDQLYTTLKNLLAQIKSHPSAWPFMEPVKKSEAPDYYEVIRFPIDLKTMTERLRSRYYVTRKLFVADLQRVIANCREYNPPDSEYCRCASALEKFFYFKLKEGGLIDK

[21] = target: T1, Histone acetyltransferase p300; assay: Inhibition of P300 in human U937 cells assessed as reduction in H4K5 histone acetylation at 100 uM by immunoblotting analysis; type: cell-based; conditions: U-937, TDE = time-dependent effect
[22] = target: T1, Histone acetyltransferase p300; assay: Reversible inhibition of P300 (unknown origin)
[23] = target: T1, Histone acetyltransferase p300; assay: Inhibition of P300 in human U937 cells assessed as reduction in H3K9 histone acetylation at 100 uM by immunoblotting analysis; type: cell-based; conditions: U-937, TDE = time-dependent effect
[24] = target: CREB-binding protein (Homo sapiens, UniProt Q92793); assay: Inhibition of recombinant CBP (unknown origin)
[25] = Induction of beta-mercaptoethanol adduct formation in PBS after 30 mins to 24 hrs by HPLC analysis
[26] = target: T2, Histone acetyltransferase KAT2B; assay: Inhibition of recombinant PCAF (unknown origin)
Target sequence in this assay (Q92831 whole entry, looked up): as the sequence (Q92831 whole entry, looked up) above

Row | SMILES | Stability [1] | Stability [2] | inhibition [4] [%] | inhibition [6] [%] | further results
1 | O=C1C(=Cc2ccccc2)C(=O)N(Cc2ccccc2)C(=O)N1Cc1ccccc1 | Stable | Unstable |  |  | 
2 | COc1ccc(C=C2C(=O)N(Cc3ccccc3)C(=O)N(Cc3ccccc3)C2=O)cc1O | Stable | Unstable | 97.3 |  | IC50 [3]: 5.9 µM; Stability [5]: Unstable
3 | C=CCN1C(=O)C(Cc2ccc(O)cc2)C(=O)N(CC=C)C1=O |  |  | 23.7 | -7.5 | 
4 | COc1cc(C=C2C(=O)N(CC(C)C)C(=O)N(CC(C)C)C2=O)ccc1O | Stable | Unstable | 96.4 | 9.3 | IC50 [3]: 4.2 µM
5 | C=CCN1C(=O)C(C(=O)c2ccc(O)c(O)c2)C(=O)N(CC=C)C1=O |  |  | 4.9 | 3.6 | 
6 | C=CCN1C(=O)C(C(=O)c2ccc(O)cc2)C(=O)N(CC=C)C1=O |  |  | 19.1 | -2.7 | 
7 | O=C1C(=Cc2ccc(O)cc2)C(=O)N(Cc2ccccc2)C(=O)N1Cc1ccccc1 | Stable | Unstable | 99.2 | -0.6 | IC50 [3]: 2.1 µM; inhibition [7]: Active; Stability [5]: Unstable
8 | CC(C)CN1C(=O)C(C(=O)c2ccc(O)c(O)c2)C(=O)N(CC(C)C)C1=O |  |  | 8.4 | 3.4 | 
9 | COc1cc(C=C2C(=O)N(Cc3ccccc3)C(=O)N(Cc3ccccc3)C2=O)ccc1O | Stable | Unstable | 97.1 |  | IC50 [3]: 1.5 µM; Stability [5]: Unstable
10 | CC(C)CN1C(=O)C(C(=O)c2ccc(O)cc2)C(=O)N(CC(C)C)C1=O |  |  | 39.7 | 19.3 | 
11 | C=CCN1C(=O)C(=Cc2ccc(O)cc2)C(=O)N(CC=C)C1=O | Stable | Unstable | 64.7 | 3.1 | 
12 | CC(C)CN1C(=O)C(=Cc2ccc(O)c(O)c2)C(=O)N(CC(C)C)C1=O | Stable | Unstable | 91.8 |  | IC50 [3]: 5.4 µM
13 | C=CCN1C(=O)C(=Cc2ccccc2)C(=O)N(CC=C)C1=O | Stable | Unstable |  |  | 
14 | O=C(c1ccc(O)c(O)c1)C1C(=O)N(Cc2ccccc2)C(=O)N(Cc2ccccc2)C1=O |  |  | 48.2 |  | 
15 | CC1=NN(c2ccc(C(=O)O)cc2)C(=O)/C1=C\Cc1ccc(Cc2cc(C)c(C)cc2[N+](=O)[O-])o1 |  |  |  |  | IC50 [3]: 1.6 µM; inhibition [8]: 86%
16 | O=C1C(Cc2ccc(O)cc2)C(=O)N(Cc2ccccc2)C(=O)N1Cc1ccccc1 |  |  | 60.3 |  | 
17 | CC(C)CN1C(=O)C(Cc2ccc(O)c(O)c2)C(=O)N(CC(C)C)C1=O |  |  | 24.3 |  | 
18 | COc1ccc(C=C2C(=O)N(Cc3ccccc3)C(=O)N(Cc3ccccc3)C2=O)cc1OC | Stable | Unstable | 88.2 |  | IC50 [3]: 11.4 µM
19 | CC(C)CN1C(=O)C(=Cc2ccccc2)C(=O)N(CC(C)C)C1=O | Stable | Unstable |  |  | 
20 | C=CCN1C(=O)C(Cc2ccc(O)c(O)c2)C(=O)N(CC=C)C1=O |  |  | 1.1 |  | 
21 | CC(C)CN1C(=O)C(Cc2ccc(O)cc2)C(=O)N(CC(C)C)C1=O |  |  | 64.6 | 5 | 
22 | CCCCCCCCCCCCCCCc1cccc(O)c1C(=O)O [ANACARDIC ACID] |  |  |  | 3.6 | IC50 [9]: 33.9 µM; inhibition [10]: < 10%

Row | SMILES | Stability [1] | Stability [2] | inhibition [4] [%] | inhibition [6] [%] | further results
23 | CC(C)CN1C(=O)C(C(=O)c2ccccc2)C(=O)N(CC(C)C)C1=O |  |  | 34.1 |  | 
24 | C=CCN1C(=O)C(=Cc2ccc(OC)c(OC)c2)C(=O)N(CC=C)C1=O | Stable | Unstable | 31.1 | 6.6 | 
25 | CC(C)CN1C(=O)C(=Cc2ccc(O)cc2)C(=O)N(CC(C)C)C1=O | Stable | Unstable | 94 |  | IC50 [3]: 8.5 µM
26 | COc1ccc(C=C2C(=O)N(CC(C)C)C(=O)N(CC(C)C)C2=O)cc1OC | Stable | Unstable | 45.8 | 9.2 | 
27 | C=CCN1C(=O)C(=Cc2ccc(OC)cc2)C(=O)N(CC=C)C1=O | Stable | Unstable | 59.9 | 11.7 | 
28 | O=C1C(Cc2ccccc2)C(=O)N(Cc2ccccc2)C(=O)N1Cc1ccccc1 |  |  | 83.9 |  | Stability [11]: Stable; Kd [12]: 0.11 µM
29 | C=CCN1C(=O)C(C(=O)c2ccccc2)C(=O)N(CC=C)C1=O |  |  | 28.1 |  | 
30 | O=C(c1ccc(O)cc1)C1C(=O)N(Cc2ccccc2)C(=O)N(Cc2ccccc2)C1=O |  |  | 54.4 |  | 
31 | COc1ccc(C=C2C(=O)N(CC(C)C)C(=O)N(CC(C)C)C2=O)cc1O | Stable | Unstable | 84.7 | 10.6 | IC50 [3]: 31.4 µM
32 | C=CCN1C(=O)C(Cc2ccccc2)C(=O)N(CC=C)C1=O |  |  | 28.9 |  | 
33 | C=CCN1C(=O)C(=Cc2ccc(O)c(OC)c2)C(=O)N(CC=C)C1=O | Stable | Unstable | 67.3 | 5.1 | IC50 [3]: 26.4 µM
34 | CC(C)CN1C(=O)C(Cc2ccccc2)C(=O)N(CC(C)C)C1=O |  |  | 23.1 |  | 
35 | COc1ccc(C=C2C(=O)N(Cc3ccccc3)C(=O)N(Cc3ccccc3)C2=O)cc1 | Stable | Unstable | 93.6 | -8.2 | IC50 [3]: 8 µM
36 | O=C(c1ccccc1)C1C(=O)N(Cc2ccccc2)C(=O)N(Cc2ccccc2)C1=O |  |  | 84.8 |  | Stability [11]: Stable; Kd [12]: 2.4 µM
37 | COc1ccc(C=C2C(=O)N(CC(C)C)C(=O)N(CC(C)C)C2=O)cc1 | Stable | Unstable | 53.8 | 3.6 | 
38 | Cc1cc(O)cc(C)c1C=C1C(=O)N(Cc2ccccc2)C(=O)N(Cc2ccccc2)C1=O |  |  |  |  | Stability [11]: Stable; Activity [13]: Active; Ki [14]: 2 µM; alphaKi [14]: 5.7 µM; IC50 [15]: 2.9 µM; Papp at 24 h [16]: 1.9 ×10⁻⁶ cm/s; Ki [17]: 9.4 µM; alphaKi [17]: 6.8 µM; Activity [18]: Active; Activity [19]: Non-toxic; inhibition [20]: inactive; inhibition [21]: tde; inhibition [22]: Active; inhibition [23]: tde; IC50 [24]: 1.1 µM; Activity [25]: inactive; inhibition [26]: inactive
39 | O=C1C(Cc2ccc(O)c(O)c2)C(=O)N(Cc2ccccc2)C(=O)N1Cc1ccccc1 |  |  | 59.9 |  | 
40 | CC(C)NCC(O)COc1cccc2ccccc12 (stereo not given) [PROPRANOLOL] |  |  |  |  | Papp at 24 h [16]: 4.1 ×10⁻⁶ cm/s
41 | C=CCN1C(=O)C(=Cc2ccc(O)c(O)c2)C(=O)N(CC=C)C1=O | Stable | Unstable | 61.6 | 3.3 | 
42 | O=C1C(=Cc2ccc(O)c(O)c2)C(=O)N(Cc2ccccc2)C(=O)N1Cc1ccccc1 | Stable | Unstable | 96.2 | -2.3 | IC50 [3]: 1.6 µM; Stability [5]: Unstable
43 | C=CCN1C(=O)C(=Cc2ccc(OC)c(O)c2)C(=O)N(CC=C)C1=O | Stable | Unstable | 49.5 | 3 | 
